ChEMBL document CHEMBL3098015, “Synthesis and evaluation of 1-cyclopropyl-6-fluoro-1,4-dihydro-4-oxo-7-(4-(2-(4-substitutedpiperazin-1-yl)acetyl)piperazin-1-yl)quinoline-3-carboxylic acid derivatives as anti-tubercular and antibacterial agents” (Eur J Med Chem, 2014)
In brackets after ≈: the same amount, converted by molar mass.

Columns and labels:
[1] = tested on: Mycobacterium tuberculosis; test: Antimicrobial activity against Mycobacterium tuberculosis H37Rv ATCC 27294 after 3 weeks by microbroth dilution method; type: functional; conditions: H37Rv ATCC 27294, 504 h
Staphylococcus aureus [2] = test: Antimicrobial activity against Staphylococcus aureus ATCC 29213 after 24 hrs by broth microdilution method; type: functional; conditions: ATCC 29213, 24 h
Escherichia coli [3] = test: Antimicrobial activity against Escherichia coli ATCC 25922 after 24 hrs by broth microdilution method; type: functional; conditions: ATCC 25922, 24 h
RAW264.7 = test: Cytotoxicity against mouse RAW264.7 cells after 72 hrs by MTT assay; type: cell-based; conditions: RAW264.7, 72 h
[4] = Selectivity index, ratio of IC50 for mouse RAW264.7 cells to MIC for Mycobacterium tuberculosis H37Rv ATCC 27294; type: toxicity; conditions: read-out: Selectivity Index
[5] = Cytotoxicity against mouse RAW264.7 cells at 50 uM after 72 hrs by MTT assay; type: cell-based; conditions: read-out: INH
[6] = Inhibition of DNA gyrase (unknown origin) using relaxed pBR322 as substrate after 30 mins by agarose gel electrophoresis
Staphylococcus aureus [7] = test: Bactericidal activity against Staphylococcus aureus ATCC 29213 assessed as 3 log reduction in inoculum size after 24 hrs by broth microdilution method relative to control; type: functional; conditions: ATCC 29213, 24 h
Escherichia coli [8] = test: Bactericidal activity against Escherichia coli ATCC 25922 assessed as 3 log reduction in inoculum size after 24 hrs by broth microdilution method relative to control; type: functional; conditions: ATCC 25922, 24 h

Row | Structure (SMILES) | MIC99 [1] [µM] | MIC99 (Staphylococcus aureus [2]) [µM] | MIC99 (Escherichia coli [3]) [µM] | IC50 (RAW264.7) [µM] | selectivity ratio [4] | cytotoxicity at 72 h, 50 µM [5] [%] | IC50 [6] [µM] | MBC (Staphylococcus aureus [7]) [µM] | MBC (Escherichia coli [8]) [µM]
1 | O=C(O)c1cn(C2CC2)c2cc(N3CCN(C(=O)CN4CCN(c5ccc(Cl)cc5)CC4)CC3)c(F)cc2c1=O | 113 (≈ 64.2 µg/mL) | 1.76 (≈ 1 µg/mL) | 7.06 (≈ 4.01 µg/mL) | – | – | – | – | – | –
2 | O=C(O)c1cn(C2CC2)c2cc(N3CCNCC3)c(F)cc2c1=O [CIPROFLOXACIN] | – | 0.37 (≈ 0.123 µg/mL) | 0.021 (≈ 0.00696 µg/mL) | – | – | – | – | – | –
3 | O=C(O)c1cn(C2CC2)c2cc(N3CCN(C(=O)CN4CCN(c5ccc(F)c(F)c5)CC4)CC3)c(F)cc2c1=O | > 113 | > 225 | > 225 | – | – | – | – | – | –
4 | CC(c1ccccc1)N1CCN(CC(=O)N2CCN(c3cc4c(cc3F)c(=O)c(C(=O)O)cn4C3CC3)CC2)CC1 (stereo not drawn) | 28.6 (≈ 16 µg/mL) | 1.78 (≈ 1 µg/mL) | 3.56 (≈ 2 µg/mL) | 148 | 5.17 | 16.9 | – | – | –
5 | O=C(O)c1cn(C2CC2)c2cc(N3CCN(C(=O)CN4CCN(c5cccc(C(F)(F)F)c5)CC4)CC3)c(F)cc2c1=O | > 107 | 0.83 (≈ 0.499 µg/mL) | 6.66 (≈ 4.01 µg/mL) | – | – | – | – | – | –
6 | CN1CCN(CC(=O)N2CCN(c3cc4c(cc3F)c(=O)c(C(=O)O)cn4C3CC3)CC2)CC1 | 136 (≈ 64.2 µg/mL) | 34 (≈ 16 µg/mL) | 34 (≈ 16 µg/mL) | – | – | – | – | – | –
7 | O=C(O)c1cn(C2CC2)c2cc(N3CCN(C(=O)CN4CCN(C(c5ccccc5)c5ccccc5)CC4)CC3)c(F)cc2c1=O | 25.7 (≈ 16 µg/mL) | 0.8 (≈ 0.499 µg/mL) | 12.8 (≈ 8.01 µg/mL) | 96.6 | 3.75 | 25.9 | – | – | –
8 | O=C(O)c1cn(C2CC2)c2cc(N3CCN(C(=O)CN4CCN(c5ncccn5)CC4)CC3)c(F)cc2c1=O | 59.9 (≈ 32.1 µg/mL) | 1.87 (≈ 1 µg/mL) | 3.74 (≈ 2 µg/mL) | 227 | 3.79 | 11 | – | – | –
9 | O=C(O)c1cn(C2CC2)c2cc(N3CCN(C(=O)CN4CCN(Cc5ccccc5)CC4)CC3)c(F)cc2c1=O | 7.32 (≈ 4.01 µg/mL) | 1.83 (≈ 1 µg/mL) | 1.83 (≈ 1 µg/mL) | 161 | 22 | 15.5 | 7 | – | –
10 | O=C(O)c1cn(C2CC2)c2cc(N3CCN(C(=O)CN4CCN(c5ccccn5)CC4)CC3)c(F)cc2c1=O | > 120 | 1.87 (≈ 1 µg/mL) | 3.75 (≈ 2 µg/mL) | – | – | – | – | – | –
11 | O=C(O)c1cn(C2CC2)c2cc(N3CCN(C(=O)CN4CCN(c5ccccc5)CC4)CC3)c(F)cc2c1=O | > 120 | 0.93 (≈ 0.496 µg/mL) | 1.87 (≈ 0.998 µg/mL) | – | – | – | – | 7.51 (≈ 4.01 µg/mL) | 7.51 (≈ 4.01 µg/mL)
12 | CC(=O)N1CCN(CC(=O)N2CCN(c3cc4c(cc3F)c(=O)c(C(=O)O)cn4C3CC3)CC2)CC1 | 16.1 (≈ 8.02 µg/mL) | 4.01 (≈ 2 µg/mL) | 16.1 (≈ 8.02 µg/mL) | 154 | 9.59 | 16.2 | – | – | –
13 | O=C(O)c1cn(C2CC2)c2cc(N3CCN(C(=O)CN4CCN(c5ccc([N+](=O)[O-])cc5)CC4)CC3)c(F)cc2c1=O | > 111 | 6.92 (≈ 4 µg/mL) | 13.8 (≈ 8.01 µg/mL) | – | – | – | – | – | –
14 | CO[C@H]1/C=C/O[C@@]2(C)Oc3c(C)c(O)c4c(O)c(c(/C=N/N5CCN(C)CC5)c(O)c4c3C2=O)NC(=O)/C(C)=C\C=C\[C@H](C)[C@H](O)[C@@H](C)[C@@H](O)[C@@H](C)[C@H](OC(C)=O)[C@@H]1C [RIFAMPIN] | 0.14 (≈ 0.115 µg/mL) | – | – | – | – | – | – | – | –
15 | COc1cccc(N2CCN(CC(=O)N3CCN(c4cc5c(cc4F)c(=O)c(C(=O)O)cn5C4CC4)CC3)CC2)c1 | > 114 | 0.88 (≈ 0.496 µg/mL) | 3.55 (≈ 2 µg/mL) | – | – | – | – | – | –
16 | N#Cc1ccc(N2CCN(CC(=O)N3CCN(c4cc5c(cc4F)c(=O)c(C(=O)O)cn5C4CC4)CC3)CC2)cc1 | > 115 | 7.17 (≈ 4.01 µg/mL) | 7.17 (≈ 4.01 µg/mL) | – | – | – | – | – | –
17 | N#Cc1ccccc1N1CCN(CC(=O)N2CCN(c3cc4c(cc3F)c(=O)c(C(=O)O)cn4C3CC3)CC2)CC1 | > 115 | 0.89 (≈ 0.497 µg/mL) | 3.58 (≈ 2 µg/mL) | – | – | – | – | – | –
18 | O=C(O)c1cn(C2CC2)c2cc(N3CCN(C(=O)CN4CCN(c5ccccc5Cl)CC4)CC3)c(F)cc2c1=O | 28.2 (≈ 16 µg/mL) | 0.44 (≈ 0.25 µg/mL) | 0.88 (≈ 0.5 µg/mL) | 167 | 5.92 | 14.9 | – | 0.88 (≈ 0.5 µg/mL) | 7.06 (≈ 4.01 µg/mL)
19 | CCN1CCN(CC(=O)N2CCN(c3cc4c(cc3F)c(=O)c(C(=O)O)cn4C3CC3)CC2)CC1 | 33 (≈ 16 µg/mL) | 16.5 (≈ 8.02 µg/mL) | 16.5 (≈ 8.02 µg/mL) | 188 | 5.68 | 13.3 | – | – | –
20 | O=C(O)c1cn(C2CC2)c2cc(N3CCN(C(=O)CN4CCN(C(c5ccc(F)cc5)c5ccc(F)cc5)CC4)CC3)c(F)cc2c1=O | > 97.2 | 1.51 (≈ 0.996 µg/mL) | > 24.3 | – | – | – | – | – | –
21 | COc1ccc(N2CCN(CC(=O)N3CCN(c4cc5c(cc4F)c(=O)c(C(=O)O)cn5C4CC4)CC3)CC2)cc1OC | > 108 | 1.68 (≈ 0.997 µg/mL) | 6.75 (≈ 4.01 µg/mL) | – | – | – | – | – | –
22 | CN(C)CCN1CCN(CC(=O)N2CCN(c3cc4c(cc3F)c(=O)c(C(=O)O)cn4C3CC3)CC2)CC1 | 121 (≈ 64.2 µg/mL) | 7.58 (≈ 4.01 µg/mL) | 7.58 (≈ 4.01 µg/mL) | – | – | – | – | – | –
23 | Cc1cccc(N2CCN(CC(=O)N3CCN(c4cc5c(cc4F)c(=O)c(C(=O)O)cn5C4CC4)CC3)CC2)c1 | 29.3 (≈ 16 µg/mL) | 1.83 (≈ 1 µg/mL) | 7.32 (≈ 4.01 µg/mL) | 154 | 5.26 | 16.2 | – | – | –
24 | O=C(O)c1cn(C2CC2)c2cc(N3CCN(C(=O)CN4CCN(c5cccc(O)c5)CC4)CC3)c(F)cc2c1=O | > 117 | 1.82 (≈ 1 µg/mL) | 3.64 (≈ 2 µg/mL) | – | – | – | – | – | –
